This note sets out measurements from the supplement of paper PMC10307832.

Common to all, as to test: relative viability (nuclei count vs DMSO), 5 days (fraction); higher = more cells survive
Compound in the assay “IMD-0354 + Luminespib”: O=C(Nc1cc(C(F)(F)F)cc(C(F)(F)F)c1)c1cc(Cl)ccc1O [IMD-0354] + CCNC(=O)c1noc(-c2cc(C(C)C)c(O)cc2O)c1-c1ccc(CN2CCOCC2)cc1 [Luminespib] (partner 0.01 µM)
Summed up:
(§1)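 Dosing by pin tool came one day after lung cancer cell lines were seeded in 1536-well plates, using either one drug or a fixed anchor-drug dose plus five library-drug doses (not always all listed) in √10 steps. After 5 days, nuclei were counted on 4× images. Relative viability is treated-well nuclei count divided by vehicle-well nuclei count, and values are medians of duplicate plates.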

Compound in the assay “CX-5461 + Crizotinib”: Cc1cnc(CNC(=O)c2c(=O)c3ccc(N4CCCN(C)CC4)nc3n3c2sc2ccccc23)cn1 [CX-5461] + C[C@@H](Oc1cc(-c2cnn(C3CCNCC3)c2)cnc1N)c1c(Cl)ccc(F)c1Cl [Crizotinib] (partner 1 µM)
Summed up: as §1

Compound in the assay “CX-5461 + Dasatinib”: Cc1cnc(CNC(=O)c2c(=O)c3ccc(N4CCCN(C)CC4)nc3n3c2sc2ccccc23)cn1 [CX-5461] + Cc1nc(Nc2ncc(C(=O)Nc3c(C)cccc3Cl)s2)cc(N2CCN(CCO)CC2)n1 [Dasatinib] (partner 0.075 µM)
An outline of the steps: as §1

Compound in the assay “CX-5461 + Pemetrexed”: Cc1cnc(CNC(=O)c2c(=O)c3ccc(N4CCCN(C)CC4)nc3n3c2sc2ccccc23)cn1 [CX-5461] + Nc1nc2[nH]cc(CCc3ccc(C(=O)N[C@@H](CCC(=O)O)C(=O)O)cc3)c2c(=O)[nH]1 [Pemetrexed] (partner 0.2 µM)
Summed up:
as §1

On to UMC-11, for which the relative viability turned out to be 1.1 with IMD-0354 + Luminespib (first compound 0.04 µM); 0.888 with IMD-0354 + Luminespib (first compound 0.1265 µM); 0.434 with IMD-0354 + Luminespib (first compound 0.4 µM); 0.27 with IMD-0354 + Luminespib (first compound 1.265 µM); 0.273 with IMD-0354 + Luminespib (first compound 4 µM); 0.63 in the assay with CX-5461 + Crizotinib (first compound 0.01 µM). For the same cell line, the relative viability with CX-5461 + Crizotinib (first compound 0.03162 µM) turned out to be 0.655; with CX-5461 + Crizotinib (first compound 0.1 µM), 0.694; with CX-5461 + Crizotinib (first compound 0.3162 µM) it was 0.607; with CX-5461 + Crizotinib (first compound 1 µM), 0.153; in the assay with CX-5461 + Dasatinib (first compound 0.01 µM) it was 0.446; with CX-5461 + Dasatinib (first compound 0.03162 µM), 0.519. Besides, the relative viability in the assay with CX-5461 + Dasatinib (first compound 0.1 µM) was determined as 0.364; with CX-5461 + Dasatinib (first compound 0.3162 µM), 0.39; with CX-5461 + Dasatinib (first compound 1 µM), 0.246; with CX-5461 + Pemetrexed (first compound 0.01 µM), 0.825; with CX-5461 + Pemetrexed (first compound 0.03162 µM) it was 0.871; with CX-5461 + Pemetrexed (first compound 0.1 µM), 0.722. The relative viability is 0.763 in the assay with CX-5461 + Pemetrexed (first compound 0.3162 µM) and 0.408 with CX-5461 + Pemetrexed (first compound 1 µM).
